The target in one assay is T1, human DGKα (Homo sapiens, UniProt P23743).
T1 construct: TVMV protease cleavage site (C); Hexa-His (C); made in house; host or cells: Sf9 insect cells (baculovirus)
Briefly: In vitro DGK inhibition assay, DGKα liposome (LIPGLO) assay. It counts as biochemical. The following applies: read-out: Enzyme Inhibition DGKalpha IC50. The protocol:
(§1) The DGKα and DGKζ reactions were performed using either extruded liposome (DGKα and DGKζ LIPGLO assays) or detergent/lipid micelle substrate (DGKα and DGKζ assays). The reactions were carried out in 50 mM MOPS pH 7.5, 100 mM NaCl, 10 mM MgCl2, 1 μM CaCl2, and 1 mM DTT (assay buffer). The reactions using a detergent/lipid micelle substrate also contained 50 mM octyl B-D-glucopyranoside. The lipid substrate concentrations were 11 mM PS and 1 mM DAG for the detergent/lipid micelle reactions. The lipid substrate concentrations were 2 mM PS, 0.25 mM DAG, and 2.75 mM PC for the extruded liposome reactions (5 mM total lipid). The reactions were carried out in 150 μM ATP The enzyme concentrations for the DGKα and DGKζ were 5 nM
(§2) The compound inhibition studies were carried out as follows: 25 nL (ADPGLO assay) or 50 nL (LIPGLO assay) droplets of each test compound (top concentration 10 mM with 11 point, 3-fold dilution series for each compound) solubilized in DMSO were transferred to wells of a white 1536 well plate (Corning 3725). A 5 mL enzyme/lipid substrate solution at 2× final reaction concentration was prepared by combining 2.5 mL 4× enzyme solution (20 nM DGKα, or DGKζ (prepared as described below) in assay buffer) and 2.5 mL of either 4× liposome or 4× detergent/lipid micelle solution (compositions described below) and incubated at room temperature for 10 minutes. Next, 1 μL 2× enzyme/lipid substrate solution was added to wells containing the test compound and reactions were initiated with the addition of 1 μL 300 uM ATP. The reactions were allowed to proceed for 2 hr (ADPGLO assay) or 1 hr (LIPGLO assay), after which 2 μL Glo Reagent (Promega V9101) was added and incubated for 40 minutes. Next, 4 μL Kinase Detection Reagent was added and incubated for 30 minutes. Luminescence was recorded using an EnVision microplate reader. […] The compounds were evaluated at 11 concentrations to determine IC50.
(§3) The lipid composition was 5 mol % DAG (Avanti 8008110), 40 mol % PS (Avanti 840035P), and 55 mol % PC (Avanti 850457) at a total lipid concentration of 7-8 mg/mL for the liposome solution. The PC, DAG, and PS were dissolved in chloroform, combined, and dried in vacuo to a thin film. The lipids were hydrated to 20 mM in 50 mM MOPS pH 7.5, 100 mM NaCl, 5 mM MgCl2, and were freeze-thawed five times. The lipid suspension was extruded through a 100 nm polycarbonate filter 10-12 times. […] The liposome preparation was stored at 4° C. for as long as four weeks.
(§4) The lipid composition was 5 mol % DAG (Avanti 8008110), 40 mol % PS (Avanti 840035P), and 55 mol % PC (Avanti 850457) at a total lipid concentration of 15.2 mg/mL for the 4× liposome solution. The PC, DAG, and PS were dissolved in chloroform, combined, and dried in vacuo to a thin film. The lipids were hydrated to 20 mM in 50 mM MOPS pH 7.5, 100 mM NaCl, 5 mM MgCl2, and were freeze-thawed five times. The lipid suspension was extruded through a 100 nm polycarbonate filter eleven times. […] The liposome preparation was stored at 4° C. for as long as four weeks.
(§5) Human DGK-alpha-TVMV-His-pFBgate and human DGK-zeta-transcript variant-2-TVMV-His-pFBgate baculovirus samples were generated using the Bac-to-Bac baculovirus expression system (Invitrogen) according to the manufacturer's protocol. […] Baculovirus amplification was achieved using infected Sf9 cells at 1:1500 virus/cell ratios, and grown for 65 hours at 27° C. post-transfection.
(§6) The expression scale up for each protein was carried out in the Cellbag 50L WAVE-Bioreactor System 20/50 from GE Healthcare Bioscience. 12 L of 2×10^6 cells/mL Sf9 cells (Expression System, Davis, CA) grown in ESF921 insect medium (Expression System) were infected with virus stock at 1:200 virus/cell ratios, and grown for 66-68 hours at 27° C. post-infection.

The next assay deals with T2, human DGKζ (Homo sapiens, UniProt Q13574).
T2 construct: TVMV protease cleavage site (C); Hexa-His (C); made in house; host or cells: Sf9 insect cells (baculovirus)
The assay is described as follows: In vitro DGK inhibition assay, DGKζ liposome (LIPGLO) assay. It counts as biochemical. The conditions noted are these: read-out: Enzyme Inhibition DGKzeta IC50. The method, then: as §1, §2, §3, §4, §5, §6

Bounds are passed on as bounds.

T2 sequence (Q13574 with tags, fused parts or gaps isoform Q13574-4): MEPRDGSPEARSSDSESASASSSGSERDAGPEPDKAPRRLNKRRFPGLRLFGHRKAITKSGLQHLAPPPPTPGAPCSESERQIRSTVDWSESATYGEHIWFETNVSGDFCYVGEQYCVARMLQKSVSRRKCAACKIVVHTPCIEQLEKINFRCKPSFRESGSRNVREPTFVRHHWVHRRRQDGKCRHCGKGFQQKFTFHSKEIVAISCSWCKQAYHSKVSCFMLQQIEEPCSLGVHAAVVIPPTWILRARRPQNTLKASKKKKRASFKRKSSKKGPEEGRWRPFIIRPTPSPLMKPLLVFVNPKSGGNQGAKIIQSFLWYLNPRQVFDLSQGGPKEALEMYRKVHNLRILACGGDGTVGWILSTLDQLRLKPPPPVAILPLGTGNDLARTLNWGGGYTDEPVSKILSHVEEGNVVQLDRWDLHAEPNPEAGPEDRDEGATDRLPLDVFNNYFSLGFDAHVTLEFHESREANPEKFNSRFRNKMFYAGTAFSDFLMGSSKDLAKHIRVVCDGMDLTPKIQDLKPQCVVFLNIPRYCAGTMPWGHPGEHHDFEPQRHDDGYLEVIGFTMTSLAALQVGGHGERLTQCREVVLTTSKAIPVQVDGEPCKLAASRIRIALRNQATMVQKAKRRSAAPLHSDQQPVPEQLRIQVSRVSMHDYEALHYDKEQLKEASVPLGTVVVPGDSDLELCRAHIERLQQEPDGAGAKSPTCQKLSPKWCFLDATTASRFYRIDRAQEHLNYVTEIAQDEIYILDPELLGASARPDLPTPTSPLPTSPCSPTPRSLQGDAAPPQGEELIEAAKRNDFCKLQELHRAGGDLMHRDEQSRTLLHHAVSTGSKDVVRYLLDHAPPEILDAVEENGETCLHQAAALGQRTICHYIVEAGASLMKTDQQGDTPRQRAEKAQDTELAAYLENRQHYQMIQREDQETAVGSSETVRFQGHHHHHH
T1 sequence (P23743 with tags, fused parts or gaps): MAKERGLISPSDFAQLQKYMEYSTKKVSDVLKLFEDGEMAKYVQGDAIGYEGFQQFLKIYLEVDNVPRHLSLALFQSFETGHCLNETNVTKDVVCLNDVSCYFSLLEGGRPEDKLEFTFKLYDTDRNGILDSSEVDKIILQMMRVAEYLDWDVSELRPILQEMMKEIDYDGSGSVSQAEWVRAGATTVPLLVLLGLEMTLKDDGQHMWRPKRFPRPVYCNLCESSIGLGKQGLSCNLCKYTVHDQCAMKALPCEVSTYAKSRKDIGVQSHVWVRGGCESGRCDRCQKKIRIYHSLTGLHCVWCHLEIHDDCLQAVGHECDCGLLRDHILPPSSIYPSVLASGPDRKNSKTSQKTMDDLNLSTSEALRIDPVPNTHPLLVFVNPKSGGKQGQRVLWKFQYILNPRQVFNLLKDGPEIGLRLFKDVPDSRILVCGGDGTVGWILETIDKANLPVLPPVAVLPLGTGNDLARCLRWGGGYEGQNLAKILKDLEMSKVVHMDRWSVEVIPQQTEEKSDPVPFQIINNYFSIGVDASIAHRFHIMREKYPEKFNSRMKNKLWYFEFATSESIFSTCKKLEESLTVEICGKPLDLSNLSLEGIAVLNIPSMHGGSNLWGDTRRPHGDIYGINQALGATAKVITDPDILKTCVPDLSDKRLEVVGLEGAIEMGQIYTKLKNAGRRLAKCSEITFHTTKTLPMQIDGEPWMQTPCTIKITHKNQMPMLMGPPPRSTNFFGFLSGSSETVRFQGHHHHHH

Take `Cc1ccccc1-c1ccc(N(CC2CC2)c2cc(=O)n(C)c3ccc(C#N)nc23)cc1` [Example 75, 8-((cyclopropylmethyl)(2′-methyl-[1,1′-biphenyl]-4-yl)amino)-5-methyl-6-oxo-5,6-dihydro-1,5-naphthyridine-2-carbonitrile]: the figures for the half-maximal inhibitory concentration (IC50) on human DGKα and at human DGKζ were 3.3 µM and 0.88 µM, respectively.

In the case of `Cn1c(=O)c(C#N)c(N(CC2CC2)c2ccc(C3CC3)cc2)c2nc(C#N)ccc21` [Example 59, 8-((cyclopropylmethyl)(4-cyclopropylphenyl)amino)-5-methyl-6-oxo-5,6-dihydro-1,5-naphthyridine-2,7-dicarbonitrile], the values for the 50% inhibitory concentration (IC50) on human DGKα and on human DGKζ were over 37 µM and 6.6 µM, respectively.

Take `Cn1c(=O)cc(N(CC2CC2)c2cccc(-c3ccc(C(N)=O)cc3)c2)c2nc(C#N)ccc21` [Example 103, 3′-((6-cyano-1-methyl-2-oxo-1,2-dihydro-1,5-naphthyridin-4-yl)(cyclopropylmethyl)amino)-[1,1′-biphenyl]-4-carboxamide]: the IC50 at human DGKα came to 0.12 µM; on human DGKζ, 2 µM.

Take `CN(C)c1ccc(-c2cccc(N(CC3CC3)c3cc(=O)n(C)c4ccc(C#N)nc34)c2)cc1` [Example 107, 8-((cyclopropylmethyl)(4′-(dimethylamino)-[1,1′-biphenyl]-3-yl)amino)-5-methyl-6-oxo-5,6-dihydro-1,5-naphthyridine-2-carbonitrile]: the values for the IC50 at human DGKα and at human DGKζ were 0.022 µM and 2 µM, respectively.

In the case of `CN(C)c1cccc(-c2ccc(N(CC3CC3)c3cc(=O)n(C)c4ccc(C#N)nc34)cc2)c1` [Example 89, 8-((cyclopropylmethyl)(3′-(dimethylamino)-[1,1′-biphenyl]-4-yl)amino)-5-methyl-6-oxo-5,6-dihydro-1,5-naphthyridine-2-carbonitrile], the IC50 on human DGKα came out at 2.5 µM; at human DGKζ, 0.92 µM.

For the molecule `Cc1cccc(-c2ccc(N(CC3CC3)c3cc(=O)n(C)c4ccc(C#N)nc34)cc2)c1` [Example 74, 8-((cyclopropylmethyl)(3′-methyl-[1,1′-biphenyl]-4-yl)amino)-5-methyl-6-oxo-5,6-dihydro-1,5-naphthyridine-2-carbonitrile], the IC50 on human DGKα turned out to be 6.2 µM; on human DGKζ, 1.5 µM.

Consider `CN(c1ccc(C(F)(F)F)cc1)c1cc(=O)n(C)c2ccc(C#N)nc12` [Example 33, 5-methyl-8-(methyl(4-(trifluoromethyl)phenyl)amino)-6-oxo-5,6-dihydro-1,5-naphthyridine-2-carbonitrile], for which the IC50 was determined as 6.1 µM at human DGKα and 4.1 µM at human DGKζ.

Regarding `CN(C)C(=O)c1cccc(-c2ccc(N(CC3CC3)c3cc(=O)n(C)c4ccc(C#N)nc34)cc2)c1` [Example 88, 4′-((6-cyano-1-methyl-2-oxo-1,2-dihydro-1,5-naphthyridin-4-yl)(cyclopropylmethyl)amino)-N,N-dimethyl-[1,1′-biphenyl]-3-carboxamide], the IC50 is 3.2 µM at human DGKα and 0.88 µM on human DGKζ.

`Cc1ccccc1-c1cccc(N(CC2CC2)c2cc(=O)n(C)c3ccc(C#N)nc23)c1` [Example 93, 8-((cyclopropylmethyl)(2′-methyl-[1,1′-biphenyl]-3-yl)amino)-5-methyl-6-oxo-5,6-dihydro-1,5-naphthyridine-2-carbonitrile]: the IC50 at human DGKα was 4.2 µM; at human DGKζ it was 9.2 µM.

Turning to `Cc1cccc(N(C)c2cc(=O)n(C)c3ccc(C#N)nc23)c1` [Example 22, 5-methyl-8-(methyl(m-tolyl)amino)-6-oxo-5,6-dihydro-1,5-naphthyridine-2-carbonitrile], the IC50 on human DGKα came to 1.3 µM; on human DGKζ, 4.7 µM.

As for `Cn1c(=O)cc(N(CC2CC2)c2ccc(-n3cccc3)cc2)c2nc(C#N)ccc21` [Example 54, 8-((4-(1H-pyrrol-1-yl)phenyl) (cyclopropylmethyl)amino)-5-methyl-6-oxo-5,6-dihydro-1,5-naphthyridine-2-carbonitrile], the results for the IC50 on human DGKα and at human DGKζ were 3.9 µM and 1.3 µM, respectively.

For `COc1ccc(N(CC2CC2)c2cc(=O)n(C)c3ccc(C#N)nc23)cc1` [Example 36, 8-((cyclopropylmethyl)(4-methoxyphenyl)amino)-5-methyl-6-oxo-5,6-dihydro-1,5-naphthyridine-2-carbonitrile], the half-inhibitory concentration (IC50) on human DGKα was found to be 0.89 µM; at human DGKζ, 0.8 µM.

As for `COc1cc(N(CC2CC2)c2cc(=O)n(C)c3ccc(C#N)nc23)ccc1F` [Example 55, 8-((cyclopropylmethyl)(4-fluoro-3-methoxyphenyl)amino)-5-methyl-6-oxo-5,6-dihydro-1,5-naphthyridine-2-carbonitrile], the results for the IC50 at human DGKα and at human DGKζ were 7.7 µM and 2.2 µM, respectively.

As for `COc1ccc(-c2cccc(N(CC3CC3)c3cc(=O)n(C)c4ccc(C#N)nc34)c2)cc1` [Example 91, 8-((cyclopropylmethyl)(4′-methoxy-[1,1′-biphenyl]-3-yl)amino)-5-methyl-6-oxo-5,6-dihydro-1,5-naphthyridine-2-carbonitrile], the IC50 on human DGKα worked out at 0.023 µM; at human DGKζ, 3.2 µM.

Consider `CN(c1nc(=O)n(C)c2ccc(Cl)nc12)C1CCCCC1` [Example 30, 6-chloro-4-(cyclohexyl(methyl)amino)-1-methylpyrido[3,2-d]pyrimidin-2(1H)-one], for which the results for the IC50 at human DGKα and at human DGKζ were 0.14 µM and 73 µM, respectively.

As for `Cn1c(=O)cc(N(CC2CC2)c2ccc(-c3cccc(CNS(C)(=O)=O)c3)cc2)c2nc(C#N)ccc21` [Example 85, N-((4′-((6-cyano-1-methyl-2-oxo-1,2-dihydro-1,5-naphthyridin-4-yl) (cyclopropylmethyl)amino)-[1,1′-biphenyl]-3-yl)methyl)methanesulfonamide], the figures for the IC50 on human DGKα and at human DGKζ were 5.6 µM and 4 µM, respectively.

Turning to `Cn1c(=O)cc(N(CC2CC2)c2cccc(-c3cccc(CNS(C)(=O)=O)c3)c2)c2nc(C#N)ccc21` [Example 105, N-((3′-((6-cyano-1-methyl-2-oxo-1,2-dihydro-1,5-naphthyridin-4-yl) (cyclopropylmethyl)amino)-[1,1′-biphenyl]-3-yl)methyl)methanesulfonamide], the IC50 at human DGKα amounted to 33 µM; on human DGKζ, 4.4 µM.

With `Cn1c(=O)cc(N(CC2CC2)c2ccc(C(F)(F)F)cc2)c2nc(C#N)ccc21` [Example 42, 8-((cyclopropylmethyl)(4-(trifluoromethyl)phenyl)amino)-5-methyl-6-oxo-5,6-dihydro-1,5-naphthyridine-2-carbonitrile], the IC50 on human DGKα was 4.4 µM; on human DGKζ, 1.1 µM.

Regarding `Cn1c(=O)cc(N(CC2CC2)c2cccc(C(F)(F)F)c2)c2nc(C#N)ccc21` [Example 47, 8-((cyclopropylmethyl)(3-(trifluoromethyl)phenyl)amino)-5-methyl-6-oxo-5,6-dihydro-1,5-naphthyridine-2-carbonitrile], the results for the IC50 on human DGKα and at human DGKζ were 0.2 µM and 5.1 µM, respectively.

Regarding `COc1ccc(-c2cccc(N(C)c3cc(=O)n(C)c4ccc(C#N)nc34)c2)cc1` [Example 5, 8-((4′-methoxy-[1,1′-biphenyl]-3-yl)(methyl)amino)-5-methyl-6-oxo-5,6-dihydro-1,5-naphthyridine-2-carbonitrile], the IC50 at human DGKα is 0.18 µM; at human DGKζ it was 32 µM.

Source of the values: US20260049076A1, “Tertiary Amine Substituted Bicyclic Compounds Useful as T Cell Activators” (BRISTOL-MYERS SQUIBB COMPANY, priority 2022, published 2026).
